According to ChEMBL document CHEMBL1152364, “Dipeptidyl nitrile inhibitors of Cathepsin L” (Bioorg Med Chem Lett, 2009):

Experiments:
[1] = target: Procathepsin L (Homo sapiens, UniProt P07711); assay: Inhibition of cathepsin L
[2] = target: T1, Cathepsin L2 (Homo sapiens, UniProt O60911); assay: Inhibition of cathepsin L2
T1 sequence (O60911 whole entry): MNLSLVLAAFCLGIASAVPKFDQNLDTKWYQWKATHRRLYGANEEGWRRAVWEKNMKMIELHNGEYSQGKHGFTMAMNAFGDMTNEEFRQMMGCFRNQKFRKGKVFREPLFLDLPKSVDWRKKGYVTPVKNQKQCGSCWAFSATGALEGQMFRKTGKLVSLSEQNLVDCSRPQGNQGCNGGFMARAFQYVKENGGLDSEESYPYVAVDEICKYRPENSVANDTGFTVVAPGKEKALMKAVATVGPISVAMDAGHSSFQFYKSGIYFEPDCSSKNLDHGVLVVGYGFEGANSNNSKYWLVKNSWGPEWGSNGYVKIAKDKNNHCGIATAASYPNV

[3] = target: Cathepsin S (Homo sapiens, UniProt P25774); assay: Inhibition of cathepsin S
Sequence of Cathepsin S (P25774 whole entry): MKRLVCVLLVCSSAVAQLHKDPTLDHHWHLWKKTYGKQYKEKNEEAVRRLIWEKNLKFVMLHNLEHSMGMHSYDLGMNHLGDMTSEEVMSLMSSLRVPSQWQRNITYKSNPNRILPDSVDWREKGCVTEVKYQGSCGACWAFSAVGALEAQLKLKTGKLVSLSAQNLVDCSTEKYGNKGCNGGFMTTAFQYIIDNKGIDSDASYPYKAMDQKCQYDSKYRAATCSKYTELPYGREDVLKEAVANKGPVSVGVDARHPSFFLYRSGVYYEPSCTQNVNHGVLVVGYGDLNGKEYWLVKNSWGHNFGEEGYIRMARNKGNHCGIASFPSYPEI

[4] = target: T2, Cathepsin K (Homo sapiens, UniProt P43235); assay: Inhibition of cathepsin K
T2 sequence (P43235 whole entry): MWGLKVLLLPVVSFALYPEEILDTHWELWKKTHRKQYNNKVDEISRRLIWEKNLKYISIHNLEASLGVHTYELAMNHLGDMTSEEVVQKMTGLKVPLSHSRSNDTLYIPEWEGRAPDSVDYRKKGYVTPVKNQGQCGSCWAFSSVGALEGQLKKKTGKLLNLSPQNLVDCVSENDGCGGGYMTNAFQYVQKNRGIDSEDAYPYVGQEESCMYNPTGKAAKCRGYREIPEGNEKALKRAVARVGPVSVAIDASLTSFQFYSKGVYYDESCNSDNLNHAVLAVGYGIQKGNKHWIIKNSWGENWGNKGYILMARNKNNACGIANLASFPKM

[5] = target: Cathepsin B (Homo sapiens, UniProt P07858); assay: Inhibition of cathepsin B

Sequence of Procathepsin L (P07711 whole entry): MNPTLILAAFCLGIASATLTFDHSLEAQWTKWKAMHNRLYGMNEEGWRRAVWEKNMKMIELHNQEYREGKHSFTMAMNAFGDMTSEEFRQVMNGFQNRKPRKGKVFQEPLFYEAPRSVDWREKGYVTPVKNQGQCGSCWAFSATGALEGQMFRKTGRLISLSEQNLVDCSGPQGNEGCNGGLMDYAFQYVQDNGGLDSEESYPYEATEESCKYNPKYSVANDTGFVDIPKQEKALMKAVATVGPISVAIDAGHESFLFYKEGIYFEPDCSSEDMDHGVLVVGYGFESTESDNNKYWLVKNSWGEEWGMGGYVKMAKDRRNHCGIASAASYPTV

Structure (SMILES)	IC50 [1] [nM]	IC50 [2] [nM]	IC50 [3] [nM]	IC50 [4] [nM]	IC50 [5] [nM]
N#CCNC(=O)[C@H](Cc1cccc(Cl)c1)NC(=O)c1cccc2c1CCCC2	398	> 10000	> 10000	> 10000	> 10000
N#CCNC(=O)[C@H](Cc1cccc(Cl)c1)NC(=O)C1CCCCCC1	316	6310	2510	5010	> 10000
Cc1cc(C(=O)N[C@@H](Cc2cccc(Cl)c2)C(=O)NCC#N)n(C)n1	501	1260	794	6310	> 10000
N#CCNC(=O)[C@H](Cc1cccc(Cl)c1)NC(=O)C1=CCCCC1	501	398	2000	> 10000	> 10000
Cc1ccccc1C(=O)N[C@@H](Cc1cccc(Cl)c1)C(=O)NCC#N	794	5010	1580	5010	> 10000
Cc1nc(C)c(C(=O)N[C@@H](Cc2cccc(Cl)c2)C(=O)NCC#N)s1	398	251	200	1260	10000
N#CCNC(=O)[C@H](Cc1cccc(Cl)c1)NC(=O)C1CCCCC1	1260	6310	2510	> 10000	> 10000
Cc1cccc(C(=O)N[C@@H](Cc2cccc(Cl)c2)C(=O)NCC#N)c1C	316	3980	2000	> 10000	> 10000
Cc1nc(C(=O)N[C@@H](Cc2cccc(Cl)c2)C(=O)NCC#N)c(C)o1	631	2510	794	10000	> 10000
Cc1cccc(C(=O)N[C@@H](Cc2cccc(Cl)c2)C(=O)NCC#N)c1	251	794	398	6310	5010
Cc1nn(C)cc1C(=O)N[C@@H](Cc1cccc(Cl)c1)C(=O)NCC#N	1260	1260	1260	2510	> 10000

Continued by falling IC50 [1], values first:

IC50 [1] [nM]	IC50 [2] [nM]	IC50 [3] [nM]	IC50 [4] [nM]	IC50 [5] [nM]	Structure (SMILES)
251	1000	631	1260	2510	Cc1ccc(C(=O)N[C@@H](Cc2cccc(Cl)c2)C(=O)NCC#N)cc1
251	3980	3160	> 10000	10000	N#CCNC(=O)[C@H](Cc1cccc(Cl)c1)NC(=O)c1cccc2ccccc12
100	3160	3160	> 10000	> 10000	N#CCNC(=O)[C@H](Cc1cccc(Cl)c1)NC(=O)c1ccnc2ccccc12
79.4	501	794	2000	5010	CC(C)c1cc(C(=O)N[C@@H](Cc2cccc(Cl)c2)C(=O)NCC#N)n(C)n1
79.4	200	200	6310	3980	N#CCNC(=O)[C@H](Cc1cccc(Cl)c1)NC(=O)c1cccc(Cl)c1
79.4	501	794	5010	2000	Cc1cc(C(=O)N[C@@H](Cc2cccc(Cl)c2)C(=O)NCC#N)c(C)s1
79.4	1580	1260	6310	5010	Cc1ccc(C)c(C(=O)N[C@@H](Cc2cccc(Cl)c2)C(=O)NCC#N)c1
63.1	501	794	5010	7940	CCc1cc(C(=O)N[C@@H](Cc2cccc(Cl)c2)C(=O)NCC#N)n(C)n1
50.1	200	316	> 10000	7940	Cc1cc(C)cc(C(=O)N[C@@H](Cc2cccc(Cl)c2)C(=O)NCC#N)c1
20	1000	1000	> 10000	> 10000	Cc1cc(C(=O)N[C@@H](Cc2cccc(Cl)c2)C(=O)NCC#N)c2cc(C)ccc2c1
